Assay [1] has as its system 3D7 P. falciparum strain. Nature of the assay: parasite proliferation assay in infected red blood cells (SYBR Green I). As to conditions: Plasmodium falciparum, 3D7, Erythrocyte, 3D7 strain; read-out: EC50 3D7 strain. The class given is cell-based, Plasmodium falciparum. In short, it runs like this: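 P. falciparum 3D7 grown in O+ human erythrocytes to 3–8% parasitemia and exposed to compounds. Proliferation read as the increase in parasite DNA. Detection used SYBR Green I in saponin/triton-X/EDTA lysis buffer, with overnight lysis at room temperature.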

The test system of assay [2] is W2 strain. In words: parasite proliferation assay in infected red blood cells (SYBR Green I), W2 strain. Particulars: Erythrocyte. The class given is cell-based. An excerpt: Compounds of the invention can be assayed to measure their capacity to inhibit proliferation of parasitemia in infected red blood cells. The proliferation is quantified by the addition of SYBR Green I (INVITROGEN)® dye which has a high affinity for double stranded DNA.

Broadly, the EC50 is the concentration needed to bring the measured effect to its halfway point. Regarding `Cc1cc(C)cc([S+]([O-])c2c(-c3ccc(F)cc3)nc3n2CCN(C(=O)CN)C3(C)C)c1` (centres unmarked) [Compound 722], the results for the EC50 in assay [1] and in assay [2] (Plasmodium falciparum) were 381 nM and 281 nM, respectively.
As to `Cc1ccc(Nc2c(-c3ccc(F)cc3)nc3n2CCN(C(=O)[C@H](C)N(C)Cc2ccccc2)C3)cc1` [Compound 388], the EC50 in assay [1] came to 3220 nM; in assay [2], 1770 nM.
For the compound `CC1(C)c2nc(-c3ccc(F)cc3)c(Nc3ccc(OC(F)(F)F)cc3)n2CCN1C(=O)CN` [Compound 649], the EC50 stood at 24 nM in assay [1] and 18 nM in assay [2] (Plasmodium falciparum).
On to `COc1ccccc1-c1nc2n(c1Nc1ccc(C)cc1)CCN(C(=O)CN)C2` [Compound 381], for which the results for the EC50 in assay [1] and in assay [2] were 1970 nM and 1800 nM, respectively.
Consider `O=C(c1ccc2ncccc2c1)N1CCn2c(nc(-c3ccc(F)cc3)c2Nc2ccc(Cl)c(F)c2)C1` [Compound 370], for which the concentration for a half-maximal effect (EC50) came out at 4350 nM in assay [1] and 8340 nM in assay [2].
For the compound `Cc1ccc(Nc2c(-c3ccc(F)cc3)nc3n2CCN(C(=O)C(C)(C)CO)C3)cc1` [Compound 244], the half-maximal effective concentration (EC50) is 2400 nM in assay [1] and 1330 nM in assay [2].
As to `Fc1ccc(-c2nc3n(c2Nc2ccc(Cl)c(F)c2)CCCC3)cc1` [Compound 749], the half-maximal effective concentration (EC50) in assay [1] was found to be 1050 nM; in assay [2] (Plasmodium falciparum), 814 nM.
As to `O=C(CN1CCCC(F)(F)C1)N1CCn2c(nc(-c3ccc(F)cc3)c2Nc2ccc(F)cc2)C1` [Compound 43], the EC50 in assay [1] came to 180 nM; in assay [2], 149 nM.
Take `CC1(C)CN(C(=O)CN)Cc2nc(-c3cccc(F)c3)c(Nc3ccc(F)cc3)n21` [Compound 621]: the EC50 in assay [1] was determined as 40 nM; in assay [2] (Plasmodium falciparum) it was 45 nM.
Regarding `CC1(C)c2nc(-c3ccc(F)cc3)c(Nc3cccc(Cl)c3)n2CCN1C(=O)CN` [Compound 651], the EC50 in assay [1] was found to be 8 nM; in assay [2] (Plasmodium falciparum) it was 5 nM.
For the compound `COC(C(=O)N1CCn2c(nc(-c3ccc(F)cc3)c2Nc2ccc(C)cc2)C1)c1ccccc1` (centres unmarked) [Compound 125], the half-maximal effective concentration (EC50) in assay [1] is 50 nM; in assay [2] it was 44 nM.
For the compound `N[C@@H](Cc1ccccc1)C(=O)N1CCn2c(nc(-c3ccc(F)cc3)c2Nc2ccc(Cl)c(F)c2)C1` [Compound 324], the EC50 in assay [1] and in assay [2] was 30 nM in each case.
`CC(C)(N)C(=O)N1CCn2c(nc(C3CCCCC3)c2Nc2ccc(F)cc2)C1` [Compound 15]: the concentration giving a half-maximal response (EC50) in assay [1] is 2630 nM; in assay [2], 2110 nM.
As to `CC(C)(C)OC(=O)N[C@@H](Cc1ccc(N)cc1)C(=O)N1CCn2c(nc(-c3cccc(F)c3)c2Nc2ccc(F)cc2)C1` [Compound 243], the figures for the concentration for a half-maximal effect (EC50) in assay [1] and in assay [2] were 2970 nM and 697 nM, respectively.
For `CCN(CC)CCN1CCn2c(nc(-c3ccc(F)cc3)c2Nc2ccc(C)cc2)C1` [Compound 88], in that order: 150 nM and 81 nM.
Take `CCCNC(=O)C[C@H](NC(=O)OC(C)(C)C)C(=O)N1CCn2c(nc(-c3ccc(F)cc3)c2Nc2ccc(C)cc2)C1` [Compound 186]: the EC50 came out at 5630 nM in assay [1] and 2560 nM in assay [2].
`CC1(C)c2nc(-c3ccc(F)cc3)c(Nc3cccc(C#N)c3)n2CCN1C(=O)CN` [Compound 653]: the values for the 50% effective concentration (EC50) in assay [1] and in assay [2] (Plasmodium falciparum) were 6 nM and 9 nM, respectively.
With `Fc1ccc(Nc2c(-c3ccc(F)cc3)nc3n2CCNC3)cc1` [Example 28, N,2-bis(4-fluorophenyl)-5,6,7,8-tetrahydroimidazo[1,2-a]pyrazin-3-amine], the results for the EC50 in assay [1] and in assay [2] were 200 nM and 175 nM, respectively.
Take `CC(C)(N)C(=O)N1CCn2c(nc(-c3ccc(F)cc3)c2Nc2ccc(OC(F)(F)F)cc2)C1` [Compound 643]: the half-maximal effective concentration (EC50) in assay [1] turned out to be 2800 nM; in assay [2] (Plasmodium falciparum), 2170 nM.
As for `Cc1ccc(Nc2c(-c3cccnc3)nc3n2CCCC3)cc1` [Compound 737], the EC50 was 7850 nM in assay [1] and 4090 nM in assay [2] (Plasmodium falciparum).
For `CC(C)[C@@H]1c2nc(-c3ccc(F)cc3)c(Nc3ccc(Cl)c(F)c3)n2CCN1C(=O)CN` [Compound 602], the EC50 in assay [1] is 170 nM; in assay [2] (Plasmodium falciparum), 204 nM.
Turning to `Cc1ccc(Nc2c(-c3ccc(F)cc3)nc3n2CCN(C(=O)C(O)C(C)C)C3)cc1` (centres unmarked) [Compound 104], the EC50 amounted to 10 nM in assay [1] and 7 nM in assay [2].
Take `NCC(=O)N1CCn2c(nc(-c3cccc(F)c3)c2Nc2ccc(F)cc2)C1` [Compound 56]: the EC50 in assay [1] was found to be 10 nM; in assay [2], 13 nM.
Take `CN1Cc2nc(-c3ccc(F)cc3)c(Nc3ccc(F)c(F)c3)n2C(C)(C)C1` [Compound 611]: the results for the half-maximal effective concentration (EC50) in assay [1] and in assay [2] (Plasmodium falciparum) were 7670 nM and 5760 nM, respectively.
As to `Cc1ccc(Nc2c(-c3ccc(F)cc3)nc3n2CCN(Cc2ccc(OCCCN(C)C)cc2)C3)cc1` [Compound 183], the concentration giving a half-maximal response (EC50) turned out to be 1900 nM in assay [1] and 1340 nM in assay [2].
In the same order, the values of `CC(C)(N)C(=O)N1CCn2c(nc(-c3ccccc3)c2Nc2ccccc2)C1` [Compound 8] are 620 nM and 501 nM.
Regarding `NCC(=O)N1CCn2c(nc(-c3ccc(F)cc3)c2NC2CCCC2)C1` [Compound 6], the 50% effective concentration (EC50) in assay [1] was determined as 4380 nM; in assay [2], 4640 nM.
For `O=C(Cc1ccc(Cl)c(F)c1)N1CCn2c(nc(-c3ccc(F)cc3)c2Nc2ccc(Cl)c(F)c2)C1` [Compound 363], in that order: 1750 nM and 1130 nM.
In the case of `Cc1ccc(Nc2c(-c3ccc(F)cc3)nc3n2CCN(C(=O)[C@H](C)O)C3)cc1` [Compound 81], the EC50 in assay [1] worked out at 300 nM; in assay [2], 449 nM.
With `CCCCCc1ccc(-c2nc3n(c2Nc2ccc(F)cc2)CCN(C(=O)C(C)(C)N)C3)cc1` [Compound 14], the EC50 was 3590 nM in assay [1] and 5870 nM in assay [2].
Take `NC(C(=O)N1CCn2c(nc(-c3ccc(F)cc3)c2Nc2ccc(Cl)c(F)c2)C1)c1ccc(C(F)(F)F)cc1` (centres unmarked) [Compound 368]: the 50% effective concentration (EC50) is 520 nM in assay [1] and 286 nM in assay [2].
Take `CC1(C)c2nc(-c3ccc(F)cc3)c(NC3CCOCC3)n2CCN1C(=O)CN` [Compound 672]: the 50% effective concentration (EC50) in assay [1] stood at 9840 nM; in assay [2] (Plasmodium falciparum), 7140 nM.
Turning to `O=C(CN1CCC(F)(F)C1)N1CCn2c(nc(-c3ccc(F)cc3)c2Nc2ccc(F)cc2)C1` [Compound 57], the half-maximal effective concentration (EC50) in assay [1] was determined as 310 nM; in assay [2], 294 nM.
For `C[C@H](N)C(=O)N1CCn2c(nc(-c3ccc(F)cc3)c2Nc2ccc(Cl)c(F)c2)C1` [Compound 314], in that order: 30 nM and 20 nM.
Turning to `CN1Cc2nc(-c3ccc(F)cc3)c(Nc3ccc(Cl)c(F)c3)n2C(C)(C)C1` [Compound 609], the half-maximal effective concentration (EC50) in assay [1] was determined as 7020 nM; in assay [2] (Plasmodium falciparum) it was 4930 nM.
With `CCCCC(=O)Nc1ccc(C[C@H](N)C(=O)N2CCn3c(nc(-c4cccc(F)c4)c3Nc3ccc(Cl)c(F)c3)C2)cc1` [Compound 258], the EC50 came out at 4920 nM in assay [1] and 3510 nM in assay [2].
In the case of `O=C(CN1CCn2c(nc(-c3ccc(F)cc3)c2Nc2ccc(Cl)cc2)C1)c1ccc(F)cc1` [Compound 271], the EC50 was determined as 440 nM in assay [1] and 385 nM in assay [2].
For the compound `C[C@@H](N)C(=O)N1CCn2c(nc(-c3ccc(F)cc3)c2Nc2ccc(Cl)c(F)c2)C1` [Compound 327], the figures for the 50% effective concentration (EC50) in assay [1] and in assay [2] were 30 nM and 21 nM, respectively.
For `COCCCNCC(=O)N1CCn2c(nc(-c3ccc(F)cc3)c2Nc2ccc(C)cc2)C1` [Compound 310], in that order: 520 nM and 397 nM.
Turning to `Cc1ccc(Nc2c(-c3ccc(F)cc3)nc3n2CCN(C(=O)CC2CCNCC2)C3)cc1` [Compound 220], the concentration giving a half-maximal response (EC50) in assay [1] is 1130 nM; in assay [2], 937 nM.
Consider `Fc1cccc(-c2nc3n(c2Nc2ccc(Cl)c(F)c2)CCNC3)c1` [Compound 217], for which the EC50 in assay [1] came out at 130 nM; in assay [2], 106 nM.
In the same order, the values of `CCC(=O)Nc1ccc(C[C@H](NC(=O)OC(C)(C)C)C(=O)N2CCn3c(nc(-c4cccc(F)c4)c3Nc3ccc(Cl)c(F)c3)C2)cc1` [Compound 253] are 780 nM and 254 nM.
On to `CCCC[C@H](NC)C(=O)N1CCn2c(nc(-c3ccc(F)cc3)c2Nc2ccc(C)cc2)C1` [Compound 389], for which the EC50 is 60 nM in assay [1] and 51 nM in assay [2].
As to `CC(C)(N)C(=O)N1CCn2c(nc(-c3ccc(F)cc3)c2Nc2ccc(C#N)c(C(F)(F)F)c2)C1` [Compound 635], the concentration giving a half-maximal response (EC50) in assay [1] turned out to be 940 nM; in assay [2] (Plasmodium falciparum) it was 1760 nM.
As to `Cc1ccc(Nc2c(-c3ccc(F)cc3)nc3n2CCN(C(=O)[C@H](N)CO)C3)cc1` [Compound 284], the EC50 in assay [1] came out at 50 nM; in assay [2], 37 nM.
For `O=C([C@@H]1CCN1)N1CCn2c(nc(-c3ccc(F)cc3)c2Nc2ccc(Cl)c(F)c2)C1` [Compound 321], in that order: 20 nM and 11 nM.
Take `CC(C)(N)C(=O)N1CCn2c(nc(-c3ccc(F)cc3)c2Nc2ccc(F)cc2F)C1` [Compound 79]: the 50% effective concentration (EC50) in assay [1] came out at 110 nM; in assay [2], 90 nM.
On to `CC(C)[C@@H](N)C(=O)N1CCn2c(nc(-c3ccc(F)cc3)c2Nc2ccc(Cl)c(F)c2)C1` [Compound 318], for which the values for the EC50 in assay [1] and in assay [2] were 150 nM and 98 nM, respectively.
As for `Cc1ccc(Nc2c(-c3ccc(F)cc3)nc3n2CCN(C(=O)[C@@H](O)C(C)C)C3)cc1` [Compound 204], the EC50 in assay [1] and in assay [2] was 10 nM in each case.
As for `COC[C@H](N)C(=O)N1CCn2c(nc(-c3ccc(F)cc3)c2Nc2ccc(Cl)c(F)c2)C1` [Compound 301], the half-maximal effective concentration (EC50) was found to be 30 nM in assay [1] and 47 nM in assay [2].
Consider `CC(=O)NCCCCNCC(=O)N1CCn2c(nc(-c3ccc(F)cc3)c2Nc2ccc(C)cc2)C1` [Compound 154], for which the EC50 in assay [1] worked out at 4270 nM; in assay [2], 3410 nM.
On to `O=C(Cc1ccncc1)N1CCn2c(nc(-c3ccc(F)cc3)c2Nc2ccc(Cl)c(F)c2)C1` [Compound 302], for which the half-maximal effective concentration (EC50) stood at 170 nM in assay [1] and 149 nM in assay [2].

Source of the values: patent US9469645B2, “Compounds and compositions for the treatment of parasitic diseases” (Novartis AG, priority 2009, dated 2016).
